What was measured:
Assay in all cases: Effect of metallic ions and chemical compounds on chitinase activity
Assay type in all cases: biochemical, P. orarium
Settings in all cases: relative to standard MAT buffer control (100%); ions and EDTA 1 mM, Tween 20 0.5% v/v, SDS 0.5% w/v; 2 μM enzyme
recombinant chitinase C5 = system: recombinant chitinase C5
Method: (§1) The addition of different co-factors and chemicals was assessed to determine whether they stimulate or inhibit enzymatic activity and the effect was evaluated relative to the control in standard MAT buffer (33 mM 2-(N-morpholino) ethanesulfonic acid (MES), 33 mM sodium acetate, 33 mM Tris(hydroxymethyl) aminomethane (TRIS); pH 8.0). The selection of tested compounds at the respective concentrations was based on findings for different chitinases so far [Zarei et al., J. Microbiol., 2011. 42: p. 1017-1029.]. […] All enzymes were inhibited the strongest by Zn2+ and Cu2+ and SDS (0.5% w/v) resulting in a relative loss of activity of up to 99%. […] Inhibitory effects of Ni2+ and imidazole on enzymatic activity also underline the requirement for dialysis of the elution fractions after purification in order to remove residual Ni2+ and imidazole from the elution buffer.
(§2) Enzyme samples were incubated at different temperature (10-60° C., 10° C. increment) and pH (4-11, increment 1) using different buffer systems (Acetate, Tris-HCl, MES, total molar concentration 100 mM), as well as NaCl content (0, 1. 2.5, 5, 10 and 20% w/v) to determine optimum reaction conditions. All experiments were carried out at 1.0 ml scale using 2 μM of the respective enzymes and a 5% (wv) suspension of chitin powder extracted from shrimp shells (˜400.000 g/mol; Carl, Roth) in 100 mM MAT buffer. For the determination of the substrate specificity, chitin powder (5% w/v), glycol chitin (10% v/v), colloidal chitin (5% w/v), chitosan [DA 15-25%, medium molecular weight, Sigma-Aldrich] (5% w/v) and microcrystalline cellulose powder (Sigma Aldrich) (5% w/v) were investigated, respectively. The effect of several potential co-factors on activity was elucidated at a concentration of 1 mM. Additionally, the effect of detergents [SDS 0.5% (w/v), Tween-20 and Triton X-100 both at 0.5% (v/v)] and chemicals (Imidazole 100 mM, EDTA 1 mM) on enzymatic activity was assessed. Samples were incubated in a thermomixer for 16 h at 900 rpm. After incubation, samples were analyzed using the enzyme assay. Thermostability was assessed after incubation of recombinant chitinases at 60° C. for different durations followed by the quantification of residual enzyme activity under standard assay conditions.

recombinant chitinase C1 = system: recombinant chitinase C1
Method: as §1, §2

recombinant chitinase C4 = system: recombinant chitinase C4
Method: as §1, §2

recombinant chitinase C3 = system: recombinant chitinase C3
Method: as §1, §2

recombinant chitinase C2 = system: recombinant chitinase C2
Method: as §1, §2

SMILES | [%] Residual activity C5 (recombinant chitinase C5) | [%] Residual activity C1 (recombinant chitinase C1) | [%] Residual activity C4 (recombinant chitinase C4) | [%] Residual activity C3 (recombinant chitinase C3) | [%] Residual activity C2 (recombinant chitinase C2)
[Mg+2] [Mg^2+] | 25.8 ± 0.9% | 99.8 ± 3.1% | 3.3 ± 0.2% | 68.8 ± 2.8% | 38.7 ± 1.7%
[Cu+2] [Cu^2+] | 3.9 ± 2.9% | 11.1 ± 3.7% | 14.8 ± 3.4% | 16.9 ± 0.2% | 12.3 ± 0.9%
[Ni+2] [Ni^2+] | 5.6 ± 0.3% | 76.6 ± 5.1% | 38.8 ± 1.7% | 64.8 ± 1.2% | 23.0 ± 0.7%
[Ca+2] [Ca^2+] | 21.3 ± 0.1% | 92.7 ± 2.1% | 3.8 ± 0.4% | 94.7 ± 2.0% | 35.6 ± 1.7%
O=C(O)CN(CCN(CC(=O)O)CC(=O)O)CC(=O)O [EDTA] | 28.0 ± 0.9% | 68.9 ± 0.7% | 73.9 ± 4.1% | 80.8 ± 4.8% | 20.4 ± 1.6%
[K+] [K^2+] | 28.6 ± 0.4% | 100.1 ± 2.8% | 3.7 ± 0.2% | 72.6 ± 1.7% | 44.8 ± 2.3%
CCCCCCCCCCCCOS(=O)(=O)[O-].[Na+] [SDS, sodium dodecyl sulfate] | 19.9 ± 0.3% | 1.5 ± 0.2% | 33.2 ± 3.4% | 2.4 ± 1.9% | 21.6 ± 1.0%
[Zn+2] [Zn^2+] | 0.6 ± 0.5% | 30.5 ± 0.3% | 8.1 ± 0.7% | 21.7 ± 0.1% | 2.3 ± 0.4%

Source: US20240287489A1, “CHITINOLYTIC ENZYME-BASED PLANT PROTECTION AGENTS” (GLOBACHEM NV, priority 2021, published 2024)
